{"source": "BindingDB's records for doi:10.3109/14756366.2012.715287", "about": "(Atatürk University, 2013)", "note": "pIC50: −log10 of the molar value."}
{"biological_target": "Serum paraoxonase/arylesterase 1 (Homo sapiens, UniProt P27169)", "sequence (P27169 whole entry)": "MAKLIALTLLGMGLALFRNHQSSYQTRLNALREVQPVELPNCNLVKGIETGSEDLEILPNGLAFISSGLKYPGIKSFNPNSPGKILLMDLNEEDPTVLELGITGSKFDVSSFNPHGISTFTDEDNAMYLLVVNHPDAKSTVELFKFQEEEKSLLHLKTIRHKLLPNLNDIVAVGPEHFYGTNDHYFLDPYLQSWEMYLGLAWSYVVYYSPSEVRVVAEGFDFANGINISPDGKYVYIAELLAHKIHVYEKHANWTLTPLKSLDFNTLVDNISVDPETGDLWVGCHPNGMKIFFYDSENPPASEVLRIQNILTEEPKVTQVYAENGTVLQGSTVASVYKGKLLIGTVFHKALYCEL", "test": "Enzyme Activity Assay", "method": "The enzyme assay was based on the estimation of p-nitrophenol at 412 nm. Paraoxonase activity was determined spectrophotometrically using the same procedure in our previous studies [Ekinci et al., Eur. J. Pharmacol., 617:84-89]. One enzyme unit was defined as the amount of enzyme that catalyzes the hydrolysis of 1 μmol of substrate at 25°C."}
{"molecule": "O=C(c1ccc(O)c(O)c1)c1c(O)c(O)cc(Br)c1Br", "note": "[(2,3-Dibromo-5,6-dihydroxyphenyl)(3,4-dihydroxyphenyl)methanone (10)]", "pIC50": 3.08}
{"molecule": "COc1ccc(C(=O)c2c(Br)c(Br)cc(OC)c2OC)cc1OC", "note": "[(2,3-dibromo-5,6-dimethoxyphenyl)(3,4-dimethoxyphenyl)methanone (7)]", "pIC50": 3.76}
{"molecule": "COc1ccc(C(=O)c2cccc(OC)c2OC)cc1OC", "note": "[(2,3-dimethoxyphenyl)(3,4-dimethoxyphenyl)methanone (6)]", "pIC50": 2.92}
{"molecule": "O=C(c1cc(O)c(O)cc1Br)c1c(O)c(O)cc(Br)c1Br", "note": "[(2-Bromo-4,5-dihydroxyphenyl)(2,3-dibromo-5,6-dihydroxyphenyl)methanone (11)]", "pIC50": 2.95}
{"molecule": "COc1cc(Br)c(C(=O)c2c(Br)c(Br)cc(OC)c2OC)cc1OC", "note": "[(2-Bromo-4,5-dimethoxyphenyl)(2,3-dibromo-5,6-dimethoxyphenyl)methanone (8)]", "pIC50": 3.91}
{"molecule": "O=C(c1cc(O)c(O)c(Br)c1)c1c(O)c(O)cc(Br)c1Br", "note": "[(3-Bromo-4,5-dihydroxyphenyl)(2,3-dibromo-5,6-dihydroxyphenyl)methanone (12)]", "pIC50": 3.15}
{"molecule": "COc1cc(C(=O)c2c(Br)c(Br)cc(OC)c2OC)cc(Br)c1OC", "note": "[(3-Bromo-4,5-dimethoxyphenyl)(2,3-dibromo-5,6-dimethoxyphenyl)methanone (9)]", "pIC50": 3.90}
